Experimental data as given in PMC11901705 (Molecules, 2025).

Legend:
[1] = Freeze and thaw stability of vancomycin in human plasma; format: in vitro ADME; settings: nominal 10 mg/L
Method: (§1) The chromatographic separation was performed using HPLC-UV (Shimadzu, Kyoto, Japan), which consisted of solvent delivery pumps (LC-20 AT), an SIL-20A autosampler, and a UV-VIS detector (SPD-10A VP). The HPLC chromatographic separation was performed using a reverse-phase Supleco Discovery® C18 column (5 μm, 250 × 4.6 mm) (Supleco Inc., Mississauga, ON, Canada) with a Discovery® C18 Supelguard™ guard column (5 μm, 20 × 4 mm) (Supleco Inc., Mississauga, ON, Canada). LabSolutions Lite® software version 5.93 (Shimadzu, Kyoto, Japan) was used for the acquisition of data and analysis integration. The mobile phase comprised phosphate buffer and ACN (90:10, v/v). A phosphate buffer with a pH of 2.8 was prepared by combining 175 mL of 0.1 M phosphoric acid with 825 mL of 0.1 M monobasic sodium monophosphate. […] The final concentration of the phosphate buffer was 0.1 M. Separation was carried out using isocratic elution. The flow rate was set to 1 mL/min. The total run time for sample elution was set to 10 min. The detector was set to a wavelength of 192 nm, with the column and autosampler operated at ambient temperature.
The mixture was vortexed for 40 s and centrifuged at 12,000 rpm for 10 min using an Eppendorf 5424 Microcentrifuge (Eppendorf, Hamburg, Germany). The resultant supernatant was then transferred to a separate HPLC vial with glass inserts. […]

[2] = Stability of vancomycin in non-extracted human plasma samples; format: in vitro ADME; settings: for Mean back calculated Vancomycin Concentrations / % Error: non-extracted human plasma; for Mean back calculated Vancomycin Concentrations: HPLC-UV, mean of n = 5; for % Error: n = 5; for time of stability: plasma samples (non-extracted)
Method: as §1
(§2) The mixture was vortexed for 40 s and centrifuged at 12,000 rpm for 10 min using an Eppendorf 5424 Microcentrifuge (Eppendorf, Hamburg, Germany). The resultant supernatant was then transferred to a separate HPLC vial with glass inserts. Aliquots of 30 μL was then injected into the HPLC system for analysis. The sample preparation was performed at room temperature and directly injected into the HPLC system.
(§3) The conditions for stability assessment were designed to simulate the conditions encountered during sample storage, handling, and analysis. […] Additionally, we conducted an assessment of freeze–thaw stability involving three cycles, each comprising a 24 h freezing period followed by room temperature thawing, with the cycle being repeated. Acceptability criteria included a stability ratio to reference samples falling within the range of 85% to 115% and a percentage error within 15%.

[3] = cited from earlier work
Text: It is also the preferred agent for managing Gram-positive bacterial infections in patients allergic to beta-lactam antimicrobials.

[4] = Stability of vancomycin in extracted human plasma samples; format: physicochemical; settings: for Mean back calculated Vancomycin Concentrations: extracted human plasma, HPLC-UV, mean of n = 5
Method: as §1, §2, §3

[5] = -20 °C, 2 weeks, nominal 10 mg/L
[6] = -80 °C, 2 weeks, nominal 10 mg/L
[7] = -80 °C, 24 hours, nominal 10 mg/L
[8] = -80 °C, 24 hours, nominal 70 mg/L
[9] = fridge temperature, 2 weeks, nominal 10 mg/L
[10] = fridge temperature, 3 hours, nominal 10 mg/L
[11] = fridge temperature, 3 hours, nominal 70 mg/L
[12] = fridge temperature, 24 hours, nominal 10 mg/L
[13] = room temperature, 24 hours, nominal 10 mg/L

Q: Which “Mean back calculated Vancomycin Concentrations” value ([1]; three freeze-thaw cycles (24 h freezing, room temperature thawing), HPLC-UV, mean of n = 5) does the source give for `CN[C@H](CC(C)C)C(=O)N[C@H]1C(=O)N[C@@H](CC(N)=O)C(=O)N[C@H]2C(=O)N[C@H]3C(=O)N[C@H](C(=O)N[C@H](C(=O)O)c4cc(O)cc(O)c4-c4cc3ccc4O)[C@H](O)c3ccc(c(Cl)c3)Oc3cc2cc(c3O[C@@H]2O[C@H](CO)[C@@H](O)[C@H](O)[C@H]2O[C@H]2C[C@](C)(N)[C@H](O)[C@H](C)O2)Oc2ccc(cc2Cl)[C@H]1O` [Vancomycin] here?
A: 9.289 mg/L

Q: And the “% Error” value ([1]; three freeze-thaw cycles, n = 5)?
A: 7.110%

Q: What about the “Mean back calculated Vancomycin Concentrations” value [2, 5] of the same compound?
A: 8.179 mg/L

Q: What about the “% Error” value [2, 5] of the same compound?
A: 18.210%

Q: What about the “% Error” value ([2]; -20 °C, 2 weeks, nominal 70 mg/L) of the same compound?
A: 12.943%

Q: And the “Mean back calculated Vancomycin Concentrations” value [2, 6]?
A: 8.809 mg/L

Q: And the “% Error” value [2, 6]?
A: 11.910%

Q: What about the “Mean back calculated Vancomycin Concentrations” value ([2]; -80 °C, 2 weeks, nominal 70 mg/L) of the same compound?
A: 69.056 mg/L

Q: What about the “Mean back calculated Vancomycin Concentrations” value [2, 7] of the same compound?
A: 9.282 mg/L

Q: What about the “Mean back calculated Vancomycin Concentrations” value [2, 8] of the same compound?
A: 67.964 mg/L

Q: And the “% Error” value [2, 8]?
A: 2.909%

Q: And the “Mean back calculated Vancomycin Concentrations” value [2, 9]?
A: 8.404 mg/L

Q: What about the “% Error” value [2, 9] of the same compound?
A: 15.960%

Q: What about the “% Error” value ([2]; fridge temperature, 2 weeks, nominal 70 mg/L) of the same compound?
A: 1.271%

Q: What about the “Mean back calculated Vancomycin Concentrations” value [2, 10] of the same compound?
A: 9.276 mg/L

Q: What about the “% Error” value [2, 10] of the same compound?
A: 7.240%

Q: What about the “Mean back calculated Vancomycin Concentrations” value [2, 11] of the same compound?
A: 75.272 mg/L

Q: What about the “% Error” value [2, 11] of the same compound?
A: 7.531%

Q: What about the “Mean back calculated Vancomycin Concentrations” value [2, 12] of the same compound?
A: 8.860 mg/L

Q: What about the “% Error” value [2, 12] of the same compound?
A: 11.400%

Q: And the “% Error” value ([2]; fridge temperature, 24 hours, nominal 70 mg/L)?
A: 0.770%

Q: What about the “Mean back calculated Vancomycin Concentrations” value ([2]; room temperature, 3 hours, nominal 70 mg/L) of the same compound?
A: 70.355 mg/L

Q: What about the “Mean back calculated Vancomycin Concentrations” value [2, 13] of the same compound?
A: 9.543 mg/L

Q: What about the time of stability ([2]; -80 °C) of the same compound?
A: 2 weeks

Q: And the time of stability ([2]; room temperature)?
A: 24 h

Q: What about the oral bioavailability [3] of the same compound?
A: negligible

Q: And the “period with satisfactory precision and accuracy” value ([4]; extracted human plasma samples, -80 °C storage)?
A: 2 week

Q: And the “degradation on storage at room temperature” value ([4]; extracted human plasma samples, storage for 24 h, 1 week and 2 weeks)?
A: substantial degradation

Q: What about the “period with satisfactory precision and accuracy” value ([4]; extracted human plasma samples, under refrigeration) of the same compound?
A: 2 week

Q: And the “Mean back calculated Vancomycin Concentrations” value [4, 6]?
A: 8.980 mg/L

Q: What about the “Mean back calculated Vancomycin Concentrations” value [4, 7] of the same compound?
A: 9.888 mg/L

Q: And the “Mean back calculated Vancomycin Concentrations” value ([4]; fridge temperature (4 °C), 2 weeks, nominal 10 mg/L)?
A: 8.307 mg/L

Q: And the “Mean back calculated Vancomycin Concentrations” value ([4]; fridge temperature (4 °C), 3 hours, nominal 10 mg/L)?
A: 8.720 mg/L

Q: And the “Mean back calculated Vancomycin Concentrations” value ([4]; fridge temperature (4 °C), 24 hours, nominal 10 mg/L)?
A: 9.740 mg/L

Q: And the “Mean back calculated Vancomycin Concentrations” value ([4]; fridge temperature (4 °C), 24 hours, nominal 70 mg/L)?
A: 76.528 mg/L

Q: What about the “Mean back calculated Vancomycin Concentrations” value ([4]; room temperature, 1 week, nominal 10 mg/L) of the same compound?
A: 2.491 mg/L

Q: And the “Mean back calculated Vancomycin Concentrations” value ([4]; room temperature, 2 weeks, nominal 10 mg/L)?
A: 0.722 mg/L

Q: What about the “Mean back calculated Vancomycin Concentrations” value ([4]; room temperature, 2 weeks, nominal 70 mg/L) of the same compound?
A: 3.647 mg/L

Q: What about the “Mean back calculated Vancomycin Concentrations” value ([4]; room temperature, 3 hours, nominal 10 mg/L) of the same compound?
A: 9.283 mg/L

Q: And the “Mean back calculated Vancomycin Concentrations” value [4, 13]?
A: 6.792 mg/L
